Data: ChEMBL document CHEMBL1156211, “Amide-based inhibitors of p38alpha MAP kinase. Part 1: discovery of novel N-pyridyl amide lead molecules” (Bioorg Med Chem Lett, 2010)

Molecular target: T1, Mitogen-activated protein kinase 14 (Homo sapiens, UniProt Q16539)
Assay: Inhibition of p38alpha assessed as inhibition of gamma-32p-ATP incorporation into biotin peptide substrate after 60 mins by scintillation counter

T1 sequence (Q16539 whole entry): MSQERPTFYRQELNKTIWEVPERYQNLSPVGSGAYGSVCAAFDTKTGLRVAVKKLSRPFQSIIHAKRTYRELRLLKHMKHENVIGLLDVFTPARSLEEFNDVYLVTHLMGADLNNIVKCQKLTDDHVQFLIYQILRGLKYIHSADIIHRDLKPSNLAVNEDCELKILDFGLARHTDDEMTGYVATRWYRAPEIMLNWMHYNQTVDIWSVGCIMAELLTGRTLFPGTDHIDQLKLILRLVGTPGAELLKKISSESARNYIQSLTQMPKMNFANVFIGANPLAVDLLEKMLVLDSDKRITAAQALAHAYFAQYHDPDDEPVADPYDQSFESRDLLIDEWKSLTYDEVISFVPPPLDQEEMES

SMILES | IC50
CCN(C(=O)c1ccc2ccccc2c1)c1ccnc(N[C@@H](C)c2ccccc2)c1 | 313 nM
Nc1cc(N(Cc2ccc(F)cc2)C(=O)c2ccc3ccccc3c2)ccn1 | 5080 nM
O=C(c1ccc2ccccc2c1)N(Cc1ccc(F)cc1)c1ccnc(NC2CCCCC2)c1 | 1110 nM
CC(C)Nc1cc(N(Cc2ccc(F)cc2)C(=O)c2ccc3ccccc3c2)ccn1 | 671 nM
CC(=O)N(Cc1ccc(F)cc1)c1ccnc(N[C@@H](C)c2ccccc2)c1 | 408 nM
C[C@H](Nc1cc(N(Cc2ccc(F)cc2)C(=O)c2ccc3ccccc3c2)ccn1)c1ccccc1 | 345 nM

Results, then the compound that gave them:

IC50 | SMILES
7540 nM | C[C@H](Nc1cc(N(Cc2ccc(F)cc2)S(=O)(=O)c2ccc3ccccc3c2)ccn1)c1ccccc1
1220 nM | O=C(c1ccc2ccccc2c1)N(Cc1ccc(F)cc1)c1ccnc(NCc2ccccc2)c1
1260 nM | O=C(c1ccc2ccccc2c1)N(Cc1ccc(F)cc1)c1ccncc1
7800 nM | C[C@@H](Nc1cc(N(Cc2ccc(F)cc2)C(=O)c2ccc3ccccc3c2)ccn1)c1ccccc1
589 nM | C[C@H](Nc1cc(N(Cc2ccc(F)cc2)C(=O)c2ccccc2)ccn1)c1ccccc1
1110 nM | C[C@H](Nc1cc(N(Cc2ccc(F)cc2)C(=O)N2CCC3C=CC=CC3C2)ccn1)c1ccccc1 (stereo not given in full)

Molecular target: T1, Mitogen-activated protein kinase 14
Assay: Inhibition of p38alpha assessed as inhibition of gamma-32p-ATP incorporation into biotin peptide substrate at 1 uM after 60 mins by scintillation counter

inhibition | SMILES
0% | O=C(c1ccc2ccccc2c1)N(Cc1ccncc1)c1ccc(F)cc1
0% | C[C@H](Nc1cc(CN(C(=O)c2ccc3ccccc3c2)c2ccc(F)cc2)ccn1)c1ccccc1
0% | C[C@H](Nc1cc(NCc2ccc(F)cc2)ccn1)c1ccccc1
